Measurements from patent US10316017B2, “COT modulators and methods of use thereof” (Gilead Sciences, Inc., priority 2015, dated 2019).

Experiments:
[1] = system: TNFα production in LPS-stimulated human monocytes; assay: Cot Monocyte TNFα Cell Based Assay; conditions: Homo sapiens, Monocyte, TNFα in LPS-stimulated human monocytes; read-out: EC50 TNF
In short: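 Human monocytes (5,000 cells/well) pretreated with compound for 1 hour at 37° C (0.5% DMSO), then stimulated with 50 pg/ml LPS for 4 hours. Total TNFα measured by TR-FRET after overnight antibody incubation at room temp, expressed as percent of control between unstimulated and stimulated cells.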

[2] = target: T1, human Cot catalytic domain (30-397 amino acids) (Homo sapiens, UniProt P41279); assay: High Throughput Cot Biochemical Assay (KinEASE TR-FRET); conditions: Cot biochemical HTRF (KinEASE TR-FRET) assay; read-out: IC50 HTRF
T1 construct: Purified recombinant human Cot catalytic domain (30-397 amino acids) was purchased from Cama Biosciences; purchased Cama Biosciences (so in the source)
In short: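 Recombinant human Cot catalytic domain (aa 30-397), 5 nM, with 1 μM STK3 peptide and 400 μM ATP in MOPS pH 7.0 buffer with MgOAc, DTT, BSA, NP-40, glycerol, 0.1% DMSO. Phosphorylated XL665-peptide detected by Eu-[…] antibody TR-FRET.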

T1 sequence (P41279 30-397): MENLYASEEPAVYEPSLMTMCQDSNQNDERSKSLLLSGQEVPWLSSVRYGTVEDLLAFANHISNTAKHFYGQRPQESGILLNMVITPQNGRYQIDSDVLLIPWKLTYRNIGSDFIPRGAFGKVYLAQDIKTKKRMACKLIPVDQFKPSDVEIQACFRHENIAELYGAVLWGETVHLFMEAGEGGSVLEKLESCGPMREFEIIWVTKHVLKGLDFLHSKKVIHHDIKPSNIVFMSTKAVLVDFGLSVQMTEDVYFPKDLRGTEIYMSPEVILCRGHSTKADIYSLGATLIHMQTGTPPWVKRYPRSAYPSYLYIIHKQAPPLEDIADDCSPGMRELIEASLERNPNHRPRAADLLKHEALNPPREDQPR

Compound | EC50 [1] [nM] | IC50 [2] [nM]
N#Cc1cnc2c(Cl)cc(N[C@H](c3c[nH]nn3)c3cccc(F)c3F)cc2c1Nc1cnc(F)c(F)c1 [Example 448, (S)-8-chloro-6-(((2,3-difluorophenyl)(1H-1,2,3-triazol-4-yl)methyl)amino)-4-((5,6-difluoropyridin-3-yl)amino)quinoline-3-carbonitrile] | 1860 | 26
N#Cc1cnc2c(Cl)cc(N[C@@H](c3ccc(F)cc3)c3c[nH]nn3)cc2c1Nc1ccc(Cl)c(Cl)c1F [Example 449, (S)-8-chloro-4-((3,4-dichloro-2-fluorophenyl)amino)-6-(((4-fluorophenyl)(1H-1,2,3-triazol-4-yl)methyl)amino)quinoline-3-carbonitrile] | 830 | 161
N#Cc1cnc2c(Cl)cc(N[C@@H](c3cccc(-c4ncco4)c3)c3cn(C4CC4)nn3)cc2c1Nc1cnc(F)c(F)c1 [Example 450, (S)-8-chloro-6-(((1-cyclopropyl-1H-1,2,3-triazol-4-yl)(3-(oxazol-2-yl)phenyl)methyl)amino)-4-((5,6-difluoropyridin-3-yl)amino)quinoline-3-carbonitrile] | 305 | 3
N#Cc1cnc2c(Cl)cc(N[C@@H](c3ccc(F)cc3)c3cn(CCCN4CCCC4)nn3)cc2c1Nc1cnc(F)c(F)c1 [Example 459] | 454 | 9
N#Cc1cnc2c(Cl)cc(N[C@H](c3c[nH]nn3)c3ccc(F)cc3F)cc2c1Nc1cnc(F)c(F)c1 [Example 460, (S)-8-chloro-6-(((2,4-difluorophenyl)(1H-1,2,3-triazol-4-yl)methyl)amino)-4-((5,6-difluoropyridin-3-yl)amino)quinoline-3-carbonitrile] | 1260 | 23
CS(=O)(=O)c1cccc([C@H](Nc2cc(Cl)c3ncc(C#N)c(Nc4ccc(Cl)c(Cl)c4F)c3c2)c2c[nH]nn2)c1 [Example 462, (S)-8-chloro-4-((3,4-dichloro-2-fluorophenyl)amino)-6-(((3-(methylsulfonyl)phenyl) (1H-1,2,3-triazol-4-yl)methyl)amino)quinoline-3-carbonitrile] | 787 | 17
N#Cc1ccc([C@H](Nc2cc(Cl)c3ncc(C#N)c(Nc4ccc(Cl)c(Cl)c4F)c3c2)c2c[nH]nn2)cc1 [Example 464, (S)-8-chloro-6-(((4-cyanophenyl)(1H-1,2,3-triazol-4-yl)methyl)amino)-4-((3,4-dichloro-2-fluorophenyl)amino) quinoline-3-carbonitrile] | 694 | 61
N#Cc1cccc([C@H](Nc2cc(Cl)c3ncc(C#N)c(Nc4ccc(Cl)c(Cl)c4F)c3c2)c2c[nH]nn2)c1 [Example 465, (S)-8-chloro-6-(((3-cyanophenyl)(1H-1,2,3-triazol-4-yl)methyl)amino)-4-((3,4-dichloro-2-fluorophenyl)amino) quinoline-3-carbonitrile] | 821 | 41
N#Cc1cccc([C@H](Nc2cc(Cl)c3ncc(C#N)c(Nc4ccc(Cl)c(Cl)c4F)c3c2)c2cn(C3COC3)nn2)c1 [Example 466, (S)-8-chloro-6-(((3-cyanophenyl)(1-(oxetan-3-yl)-1H-1,2,3-triazol-4-yl)methyl)amino)-4-((3,4-dichloro-2-fluorophenyl)amino) quinoline-3-carbonitrile] | 1400 | 53
N#Cc1cnc2c(Cl)cc(N[C@H](c3cn(C4COC4)nn3)c3ccc(F)cc3F)cc2c1Nc1cnc(F)c(F)c1 [Example 467, (S)-8-chloro-6-(((2,4-difluorophenyl)(1-(oxetan-3-yl)-1H-1,2,3-triazol-4-yl)methyl)amino)-4-((5,6-difluoropyridin-3-yl)amino)quinoline-3-carbonitrile] | 978 | 13
N#Cc1cnc2c(Cl)cc(N[C@@H](c3ccccc3)c3cn(CCCN4CCCC4)nn3)cc2c1Nc1ccc(F)c(C#N)c1F [Example 469, (S)-8-chloro-4-((3-cyano-2,4-difluorophenyl)amino)-6-((phenyl(1-(3-(pyrrolidin-1-yl)propyl)-1H-1,2,3-triazol-4-yl)methyl)amino)quinoline-3-carbonitrile] | 315 | 14

Continued, values first:

EC50 [1] [nM] | IC50 [2] [nM] | Compound
1930 | 23 | N#Cc1cnc2c(Cl)cc(N[C@H](c3c[nH]nn3)c3ccccc3F)cc2c1Nc1cnc(F)c(F)c1 [Example 447, (S)-8-chloro-4-((5,6-difluoropyridin-3-yl)amino)-6-(((2-fluorophenyl) (1H-1,2,3-triazol-4-yl)methyl)amino)quinoline-3-carbonitrile]
266 | 68 | COC(C)(C)CNc1c(C#N)cnc2c(Cl)cc(N[C@@H](c3ccccc3)c3cn(C4CCN(C(C)(C)C)CC4)nn3)cc12 [Example 451]
420 | 98 | CC1(CNc2c(C#N)cnc3c(Cl)cc(N[C@@H](c4ccccc4)c4cn(C5CCN(C(C)(C)C)CC5)nn4)cc23)COC1 [Example 452, (S)-6-(((1-(1-(tert-butyl)piperidin-4-yl)-1H-1,2,3-triazol-4-yl)(phenyl)methyl)amino)-8-chloro-4-(((3-methyloxetan-3-yl)methyl)amino)quinoline-3-carbonitrile]
231 | 11 | CC1(CNc2c(C#N)cnc3c(Cl)cc(N[C@@H](c4ccccc4)c4cn(C5CCN(C(C)(C)C)CC5)nn4)cc23)CCC1 [Example 453, (S)-6-(((1-(1-(tert-butyl)piperidin-4-yl)-1H-1,2,3-triazol-4-yl)(phenyl)methyl)amino)-8-chloro-4-(((1-methylcyclobutyl)methyl)amino)quinoline-3-carbonitrile]
1770 | 49 | CC(C)(C)N1CCC(n2cc([C@@H](Nc3cc(Cl)c4ncc(C#N)c(NCC5CCC5)c4c3)c3ccccc3)nn2)CC1 [Example 454, (S)-6-(((1-(1-(tert-butyl)piperidin-4-yl)-1H-1,2,3-triazol-4-yl)(phenyl)methyl)amino)-8-chloro-4-((cyclobutylmethyl)amino) quinoline-3-carbonitrile]
171 | 48 | CC1(CNc2c(C#N)cnc3c(Cl)cc(N[C@@H](c4ccccc4)c4cn(C5CCN(C(C)(C)C)CC5)nn4)cc23)CC1 [Example 455, (S)-6-(((1-(1-(tert-butyl)piperidin-4-yl)-1H-1,2,3-triazol-4-yl)(phenyl)methyl)amino)-8-chloro-4-(((1-methylcyclopropyl)methyl)amino)quinoline-3-carbonitrile]
305 | 7 | N#Cc1cnc2c(Cl)cc(N[C@@H](c3ccc(F)cc3)c3cn(C4CC4)nn3)cc2c1Nc1cnc(F)c(F)c1 [Example 456, (S)-8-chloro-6-(((1-cyclopropyl-1H-1,2,3-triazol-4-yl)(4-fluorophenyl)methyl)amino)-4-((5,6-difluoropyridin-3-yl)amino)quinoline-3-carbonitrile]
616 | 43 | CC(C)(C)n1cc([C@@H](Nc2cc(Cl)c3ncc(C#N)c(Nc4cnc(F)c(F)c4)c3c2)c2ccc(F)cc2)nn1 [Example 457, (S)-6-(((1-(tert-butyl)-1H-1,2,3-triazol-4-yl)(4-fluorophenyl)methyl)amino)-8-chloro-4-((5,6-difluoropyridin-3-yl)amino)quinoline-3-carbonitrile]
598 | 17 | CC(C)n1cc([C@@H](Nc2cc(Cl)c3ncc(C#N)c(Nc4cnc(F)c(F)c4)c3c2)c2ccc(F)cc2)nn1 [Example 458, (S)-8-chloro-4-((5,6-difluoropyridin-3-yl)amino)-6-(((4-fluorophenyl)(1-isopropyl-1H-1,2,3-triazol-4-yl)methyl)amino)quinoline-3-carbonitrile]
1530 | 20 | [2H][C@](Nc1cc(Cl)c2ncc(C#N)c(Nc3cnc(F)c(F)c3)c2c1)(c1ccccc1)c1c[nH]nn1 [Example 461, (S)-8-chloro-4-((5,6-difluoropyridin-3-yl)amino)-6-((phenyl(1H-1,2,3-triazol-4-yl)methyl-d)amino)quinoline-3-carbonitrile]
1410 | 144 | [2H][C@](Nc1cc(Cl)c2ncc(C#N)c(Nc3ccc(Cl)c(Cl)c3F)c2c1)(c1ccccc1)c1c[nH]nn1 [Example 463, (S)-8-chloro-4-((3,4-dichloro-2-fluorophenyl)amino)-6-((phenyl(1H-1,2,3-triazol-4-yl)methyl-d)amino)quinoline-3-carbonitrile]
3150 | 173 | COc1ccc(Nc2c(C#N)cnc3c(Cl)cc(N[C@@H](c4ccccc4)c4cn(C(C)(C)C)nn4)cc23)cn1 [Example 468, (S)-6-(((1-(tert-butyl)-1H-1,2,3-triazol-4-yl)(phenyl)methyl)amino)-8-chloro-4-((6-methoxypyridin-3-yl)amino)quinoline-3-carbonitrile]
608 | 13 | CC(C)(C)N1CCC(n2cc([C@@H](Nc3cc(Cl)c4ncc(C#N)c(Nc5ccc(F)c(C#N)c5F)c4c3)c3ccccc3)nn2)CC1 [Example 470, (S)-6-(((1-(1-(tert-butyl)piperidin-4-yl)-1H-1,2,3-triazol-4-yl)(phenyl)methyl)amino)-8-chloro-4-((3-cyano-2,4-difluorophenyl)amino) quinoline-3-carbonitrile]
